For 1 compound, KI (inactivation) results are on record in publication PMC5472749, “A covalent PIN1 inhibitor selectively targets cancer cells by a dual mechanism of action” (Nature Communications, 2017).

The assay deals with T1, PIN1 (Homo sapiens, UniProt Q13526).
T1 construct: recombinant human PIN1
As to the kind of experiment: trypsin-coupled PPIase assay (kinact/Ki; IC50 […]); LC/MS and MALDI MS/MS show a +[…] Da adduct on C113, absent in C113A. It counts as biochemical. Conditions: read-out: Ki.

T1 sequence (Q13526 whole entry): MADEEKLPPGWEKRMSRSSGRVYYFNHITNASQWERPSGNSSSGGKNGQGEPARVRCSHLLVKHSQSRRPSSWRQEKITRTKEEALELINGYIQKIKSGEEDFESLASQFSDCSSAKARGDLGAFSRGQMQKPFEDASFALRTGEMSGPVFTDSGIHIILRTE

Take `CC(C)(C)c1ccc(S(=O)(=O)/N=C2/C=C(SCC(=O)O)C(=O)c3ccccc32)cc1` [compound 1]: the KI (inactivation) came out at 625 ± 325 nM.
